# Measured values reported in patent US20220162167A1, “SUBSTITUTED BICYCLIC AND TETRACYCLIC QUINONES AND USE THEREOF AS ANTI-CANCER AGENTS” (THE REGENTS OF THE UNIVERSITY OF MICHIGAN, priority 2019, published 2022).
# What was measured:
# Assay type in all cases: cell-based
# [1] = tested on: CCRF-CEM; assay: NCI60 growth inhibition, CCRF-CEM; details: Leukemia
# Summary of the method: (§1)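 At the NCI Developmental Therapeutics Program, selected compounds were evaluated on 60 cancer cell lines for inhibition of growth.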
# [2] = tested on: HL-60(TB); assay: NCI60 growth inhibition, HL-60(TB); details: Leukemia
# Summary of the method: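 Representative compounds go through the National Cancer Institute's 60-cell cancer panel, where growth inhibition of each line is recorded.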
# [3] = tested on: K-562; assay: NCI60 growth inhibition, K-562; details: Leukemia
# Summary of the method: as §1
# [4] = tested on: MOLT-4; assay: NCI60 growth inhibition, MOLT-4; details: Leukemia
# Summary of the method: as §1
# [5] = tested on: RPMI-8226; assay: NCI60 growth inhibition, RPMI-8226; details: Leukemia
# Summary of the method: as §1
# [6] = tested on: SR; assay: NCI60 growth inhibition, SR; details: Leukemia
# Summary of the method: as §1
# [7] = tested on: A549/ATCC; assay: NCI60 growth inhibition, A549/ATCC; details: Non-Small Cell Lung Cancer
# Summary of the method: as §1
# [8] = tested on: EKVX; assay: NCI60 growth inhibition, EKVX; details: Non-Small Cell Lung Cancer
# Summary of the method: as §1
# [9] = tested on: HOP-62; assay: NCI60 growth inhibition, HOP-62; details: Non-Small Cell Lung Cancer; note: test concentration or dose not given here
# Summary of the method: as §1
# [10] = tested on: HOP-92; assay: NCI60 growth inhibition, HOP-92; details: Non-Small Cell Lung Cancer
# Summary of the method: as §1
# [11] = tested on: NCI-H226; assay: NCI60 growth inhibition, NCI-H226; details: Non-Small Cell Lung Cancer; note: test concentration or dose not given here
# Summary of the method: as §1
# [12] = tested on: NCI-H23; assay: NCI60 growth inhibition, NCI-H23; details: Non-Small Cell Lung Cancer
# Summary of the method: as §1
# [13] = tested on: NCI-H322M; assay: NCI60 growth inhibition, NCI-H322M; details: Non-Small Cell Lung Cancer
# Summary of the method: as §1
# [14] = tested on: NCI-H460; assay: NCI60 growth inhibition, NCI-H460; details: Non-Small Cell Lung Cancer
# Summary of the method: as §1
# [15] = tested on: NCI-H522; assay: NCI60 growth inhibition, NCI-H522; details: Non-Small Cell Lung Cancer
# Summary of the method: as §1
# [16] = tested on: COLO 205; assay: NCI60 growth inhibition, COLO 205; details: Colon Cancer
# Summary of the method: as §1
# [17] = tested on: HCC-2998; assay: NCI60 growth inhibition, HCC-2998; details: Colon Cancer
# Summary of the method: as §1
# [18] = tested on: HCT-116; assay: NCI60 growth inhibition, HCT-116; details: Colon Cancer
# Summary of the method: as §1
# [19] = tested on: HCT-15; assay: NCI60 growth inhibition, HCT-15; details: Colon Cancer; note: test concentration or dose not given here
# Summary of the method: as §1
# [20] = tested on: HT29; assay: NCI60 growth inhibition, HT29; details: Colon Cancer
# Summary of the method: as §1
# [21] = tested on: KM12; assay: NCI60 growth inhibition, KM12; details: Colon Cancer; note: test concentration or dose not given here
# Summary of the method: as §1
# [22] = tested on: SW-620; assay: NCI60 growth inhibition, SW-620; details: Colon Cancer; note: test concentration or dose not given here
# Summary of the method: as §1
# [23] = tested on: SF-268; assay: NCI60 growth inhibition, SF-268; details: CNS Cancer; note: test concentration or dose not given here
# Summary of the method: as §1
# [24] = tested on: SF-295; assay: NCI60 growth inhibition, SF-295; details: CNS Cancer; note: test concentration or dose not given here
# Summary of the method: as §1
# [25] = tested on: SF-539; assay: NCI60 growth inhibition, SF-539; details: CNS Cancer
# Summary of the method: as §1
# [26] = tested on: SNB-19; assay: NCI60 growth inhibition, SNB-19; details: CNS Cancer; note: test concentration or dose not given here
# Summary of the method: as §1
# [27] = tested on: SNB-75; assay: NCI60 growth inhibition, SNB-75; details: CNS Cancer; note: test concentration or dose not given here
# Summary of the method: as §1
# [28] = tested on: U251; assay: NCI60 growth inhibition, U251; details: CNS Cancer
# Summary of the method: as §1
# [29] = tested on: LOX IMVI; assay: NCI60 growth inhibition, LOX IMVI; details: Melanoma
# Summary of the method: as §1
# [30] = tested on: MALME-3M; assay: NCI60 growth inhibition, MALME-3M; details: Melanoma
# Summary of the method: as §1
# [31] = tested on: M14; assay: NCI60 growth inhibition, M14; details: Melanoma
# Summary of the method: as §1
# [32] = tested on: MDA-MB-435; assay: NCI60 growth inhibition, MDA-MB-435; details: Melanoma
# Summary of the method: as §1
# [33] = tested on: SK-MEL-2; assay: NCI60 growth inhibition, SK-MEL-2; details: Melanoma; note: test concentration or dose not given here
# Summary of the method: as §1
# [34] = tested on: SK-MEL-28; assay: NCI60 growth inhibition, SK-MEL-28; details: Melanoma
# Summary of the method: as §1
# [35] = tested on: SK-MEL-5; assay: NCI60 growth inhibition, SK-MEL-5; details: Melanoma
# Summary of the method: as §1
# [36] = tested on: UACC-257; assay: NCI60 growth inhibition, UACC-257; details: Melanoma; note: test concentration or dose not given here
# Summary of the method: as §1
# [37] = tested on: UACC-62; assay: NCI60 growth inhibition, UACC-62; details: Melanoma; note: test concentration or dose not given here
# Summary of the method: as §1
# [38] = tested on: IGROV1; assay: NCI60 growth inhibition, IGROV1; details: Ovarian Cancer
# Summary of the method: as §1
# [39] = tested on: OVCAR-3; assay: NCI60 growth inhibition, OVCAR-3; details: Ovarian Cancer
# Summary of the method: as §1
# [40] = tested on: OVCAR-4; assay: NCI60 growth inhibition, OVCAR-4; details: Ovarian Cancer; note: test concentration or dose not given here
# Summary of the method: as §1
# [41] = tested on: OVCAR-5; assay: NCI60 growth inhibition, OVCAR-5; details: Ovarian Cancer
# Summary of the method: as §1
# [42] = tested on: NCI/ADR-RES; assay: NCI60 growth inhibition, NCI/ADR-RES; details: Ovarian Cancer
# Summary of the method: as §1
# [43] = tested on: SK-OV-3; assay: NCI60 growth inhibition, SK-OV-3; details: Ovarian Cancer
# Summary of the method: as §1
# [44] = tested on: 786-0; assay: NCI60 growth inhibition, 786-0; details: Renal Cancer
# Summary of the method: as §1
# [45] = tested on: A498; assay: NCI60 growth inhibition, A498; details: Renal Cancer; note: test concentration or dose not given here
# Summary of the method: as §1
# [46] = tested on: ACHN; assay: NCI60 growth inhibition, ACHN; details: Renal Cancer
# Summary of the method: as §1
# [47] = tested on: CAKI-1; assay: NCI60 growth inhibition, CAKI-1; details: Renal Cancer; note: test concentration or dose not given here
# Summary of the method: as §1
# [48] = tested on: RXF 393; assay: NCI60 growth inhibition, RXF 393; details: Renal Cancer
# Method: (§2) Representative compounds were tested in 60 cell lines (NCI60) at the National Cancer Institute, Developmental Therapeutics Program.
# (§3) Representative compounds were tested in a panel of 60 cancer cells (NCI 60) at the National Cancer Institute. Growth inhibition are shown in table 2, table 3, table 4, table 5, and FIG. 1, FIG. 2, FIG. 3, FIG. 4, FIG. 5.
# [49] = tested on: SN12C; assay: NCI60 growth inhibition, SN12C; details: Renal Cancer
# Summary of the method: as §1
# [50] = tested on: TK-10; assay: NCI60 growth inhibition, TK-10; details: Renal Cancer
# Summary of the method: as §1
# [51] = tested on: UO-31; assay: NCI60 growth inhibition, UO-31; details: Renal Cancer
# Summary of the method: as §1
# [52] = tested on: PC-3; assay: NCI60 growth inhibition, PC-3; details: Prostate Cancer
# Summary of the method: as §1
# [53] = tested on: DU-145; assay: NCI60 growth inhibition, DU-145; details: Prostate Cancer
# Summary of the method: as §1
# [54] = tested on: MCF7; assay: NCI60 growth inhibition, MCF7; details: Breast Cancer
# Summary of the method: as §1
# [55] = tested on: MDA-MB-231/ATCC; assay: NCI60 growth inhibition, MDA-MB-231/ATCC; details: Breast Cancer
# Summary of the method: as §1
# [56] = tested on: HS 578T; assay: NCI60 growth inhibition, HS 578T; details: Breast Cancer
# Summary of the method: as §1
# [57] = tested on: BT-549; assay: NCI60 growth inhibition, BT-549; details: Breast Cancer
# Method: as §2, §3
# [58] = tested on: T-47D; assay: NCI60 growth inhibition, T-47D; details: Breast Cancer
# Summary of the method: as §1
# [59] = tested on: MDA-MB-468; assay: NCI60 growth inhibition, MDA-MB-468; details: Breast Cancer; note: test concentration or dose not given here
# Summary of the method: as §1
compound,measurement,setting,value
"CN1CCN(c2ccc3nc4c(nc3c2C(F)(F)F)C(=O)c2ncccc2C4=O)CC1 [Compound 50, 9-(4-methylpiperazin-1-yl)-10-(trifluoromethyl)pyrido[2,3-b]phenazine-5,12-dione]",Growth inhibition (% control) GIPRCNT,[1],5.713 % control
same,Growth inhibition (% control) GIPRCNT,[2],−50.3957 % control
same,Growth inhibition (% control) GIPRCNT,[3],−6.717 % control
same,Growth inhibition (% control) GIPRCNT,[4],−36.4229 % control
same,Growth inhibition (% control) GIPRCNT,[5],27.57 % control
same,Growth inhibition (% control) GIPRCNT,[6],−27.1607 % control
same,Growth inhibition (% control) GIPRCNT,[7],−36.1751 % control
same,Growth inhibition (% control) GIPRCNT,[8],5.133 % control
same,Growth inhibition (% control) GIPRCNT,[9],−63.3298 % control
same,Growth inhibition (% control) GIPRCNT,[10],27.5 % control
same,Growth inhibition (% control) GIPRCNT,[11],−78.8735 % control
same,Growth inhibition (% control) GIPRCNT,[12],−39.656 % control
same,Growth inhibition (% control) GIPRCNT,[13],36.63 % control
same,Growth inhibition (% control) GIPRCNT,[14],−56.5637 % control
same,Growth inhibition (% control) GIPRCNT,[15],−67.5222 % control
same,Growth inhibition (% control) GIPRCNT,[16],−94.9856 % control
same,Growth inhibition (% control) GIPRCNT,[17],−26.9174 % control
same,Growth inhibition (% control) GIPRCNT,[18],0.9838 % control
same,Growth inhibition (% control) GIPRCNT,[19],−47.4718 % control
same,Growth inhibition (% control) GIPRCNT,[20],−55.5144 % control
same,Growth inhibition (% control) GIPRCNT,[21],13 % control
same,Growth inhibition (% control) GIPRCNT,[22],4.709 % control
same,Growth inhibition (% control) GIPRCNT,[23],1.957 % control
same,Growth inhibition (% control) GIPRCNT,[24],−61.5894 % control
same,Growth inhibition (% control) GIPRCNT,[25],−52.4375 % control
same,Growth inhibition (% control) GIPRCNT,[26],17.8598 % control
same,Growth inhibition (% control) GIPRCNT,[27],5.296 % control
same,Growth inhibition (% control) GIPRCNT,[28],0.9108 % control
same,Growth inhibition (% control) GIPRCNT,[29],−50.1492 % control
same,Growth inhibition (% control) GIPRCNT,[30],−99.1953 % control
same,Growth inhibition (% control) GIPRCNT,[31],−89.6374 % control
same,Growth inhibition (% control) GIPRCNT,[32],−91.762 % control
same,Growth inhibition (% control) GIPRCNT,[33],−34.5495 % control
same,Growth inhibition (% control) GIPRCNT,[34],5.495 % control
same,Growth inhibition (% control) GIPRCNT,[35],−99.7024 % control
same,Growth inhibition (% control) GIPRCNT,[36],−82.2969 % control
same,Growth inhibition (% control) GIPRCNT,[37],−82.4675 % control
same,Growth inhibition (% control) GIPRCNT,[38],−32.57 % control
same,Growth inhibition (% control) GIPRCNT,[39],−27.9399 % control
same,Growth inhibition (% control) GIPRCNT,[40],−91.1398 % control
same,Growth inhibition (% control) GIPRCNT,[41],−90.4043 % control
same,Growth inhibition (% control) GIPRCNT,[42],10.14 % control
same,Growth inhibition (% control) GIPRCNT,[43],29.68 % control
same,Growth inhibition (% control) GIPRCNT,[44],36.69 % control
same,Growth inhibition (% control) GIPRCNT,[45],−21.1398 % control
same,Growth inhibition (% control) GIPRCNT,[46],−44.1558 % control
same,Growth inhibition (% control) GIPRCNT,[47],33.14 % control
same,Growth inhibition (% control) GIPRCNT,[48],38.36 % control
same,Growth inhibition (% control) GIPRCNT,[49],−95.418 % control
same,Growth inhibition (% control) GIPRCNT,[50],80.29 % control
same,Growth inhibition (% control) GIPRCNT,[51],−19.0631 % control
same,Growth inhibition (% control) GIPRCNT,[52],8.007 % control
same,Growth inhibition (% control) GIPRCNT,[53],−85.7143 % control
same,Growth inhibition (% control) GIPRCNT,[54],−57.016 % control
same,Growth inhibition (% control) GIPRCNT,[55],−5.992 % control
same,Growth inhibition (% control) GIPRCNT,[56],−15.9764 % control
same,Growth inhibition (% control) GIPRCNT,[57],−97.0139 % control
same,Growth inhibition (% control) GIPRCNT,[58],−28.3961 % control
same,Growth inhibition (% control) GIPRCNT,[59],−62.4106 % control
